Laboratory results as given in article PMC3510438, “The transmembrane tyrosines Y56, Y91 and Y167 play important roles in determining the affinity and transport rate of the rabbit proton-coupled peptide transporter PepT1” (The International Journal of Biochemistry & Cell Biology, 2009).
Changes are numbered by the printed parent chain.

Legend:
Assay in all cases: Uptake of tracer [3H]-D-Phe-L-Gln into Xenopus oocytes
Assay type in all cases: cell-based, rabbit
Y56F-rPepT1 = biological target: T1, Y56F-rPepT1 (Oryctolagus cuniculus, UniProt P36836, Y56F); settings: pHout 5.5; 1 h
T1 construct: expressed in transfected cells; host or cells: Xenopus laevis oocytes injected with cRNA
T1 sequence (P36836 1-707 Y56F): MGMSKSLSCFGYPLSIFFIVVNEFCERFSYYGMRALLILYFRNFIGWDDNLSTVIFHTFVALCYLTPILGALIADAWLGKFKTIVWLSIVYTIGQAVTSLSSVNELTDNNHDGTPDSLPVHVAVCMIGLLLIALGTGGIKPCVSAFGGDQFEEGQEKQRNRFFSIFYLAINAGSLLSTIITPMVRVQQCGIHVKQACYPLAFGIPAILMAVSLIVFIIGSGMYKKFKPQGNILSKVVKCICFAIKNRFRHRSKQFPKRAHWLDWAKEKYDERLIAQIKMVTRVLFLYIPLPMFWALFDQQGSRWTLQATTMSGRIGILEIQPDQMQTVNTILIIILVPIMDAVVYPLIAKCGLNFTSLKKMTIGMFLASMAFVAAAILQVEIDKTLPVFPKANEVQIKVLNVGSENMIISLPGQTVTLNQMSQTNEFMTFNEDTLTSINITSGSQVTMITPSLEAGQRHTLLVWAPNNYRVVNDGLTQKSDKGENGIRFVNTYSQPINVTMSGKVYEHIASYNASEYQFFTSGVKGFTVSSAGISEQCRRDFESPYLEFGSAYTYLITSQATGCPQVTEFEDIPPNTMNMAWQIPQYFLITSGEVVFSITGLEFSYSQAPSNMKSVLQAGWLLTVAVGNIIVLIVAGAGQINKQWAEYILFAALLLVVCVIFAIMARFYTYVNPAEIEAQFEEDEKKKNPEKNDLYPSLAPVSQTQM
Protocol: (§1) rPepT1 constructs were linearised with XbaI (New England Biolabs, UK) and cRNA generated by in vitro transcription (T7 mMessage mMachine, Ambion, Cambridgeshire, UK). Xenopus laevis oocytes were obtained under MS222 anaesthesia (0.2%, w/v) in accordance with the UK Animals (Scientific Procedures) Act, 1986, and maintained at 18 °C in modified Barth's medium (88 mM NaCl, 1 mM KCl, 0.82 mM MgSO4, 2.4 mM NaHCO3, 0.42 mM CaCl2, 10 mM Hepes, 5 mM sodium pyruvate, 50 μg ml^−1 gentamicin (Fluka, Poole, UK), adjusted to pH 7.6 with 1 M NaOH). Transport measurements were performed at least 72 h after micro-injection of oocytes with 27nl cRNA (1 μg/μl), with medium changed daily.
(§2) Uptake of [^3H]-D-Phe-L-Gln (17.4 Ci/mmole, custom synthesised, Cambridge Research Biochemicals, Stockton-on-Tees, UK) was performed as previously described ([Meredith, 2004]). Briefly, 5 oocytes were incubated in 100 μl of uptake medium (95 mM NaCl, 2 mM KCl, 1 mM CaCl2, 0.42 mM MgCl2, 10 mM Tris/Hepes pH 7.4 or Tris/Mes pH 5.5) with tracer (0.4 μM) [^3H]-D-Phe-L-Gln. After incubation, the oocytes were washed sequentially five times in 1 ml of ice-cold 120 mM NaCl solution, lysed individually with 100 μl 2% (w/v) SDS and liquid scintillation counted. As a control non-injected oocytes were also incubated in uptake medium with D-Phe-L-Gln as above.

wild-type rPepT1 = biological target: T2, wild-type rPepT1 (Oryctolagus cuniculus, UniProt P36836); settings: 0.4 μM tracer; pHout 5.5; 1 h; non-injected control subtracted
T2 construct: expressed in transfected cells; host or cells: Xenopus laevis oocytes injected with cRNA
T2 sequence (P36836 1-707): T1 sequence (P36836 1-707 Y56F) with F56Y
Protocol: as §1, §2

Y167Q-rPepT1 = biological target: T3, Y167Q-rPepT1 (Oryctolagus cuniculus, UniProt P36836, Y167Q); settings: both pHout 5.5 and 7.4
T3 construct: expressed in transfected cells; host or cells: Xenopus laevis oocytes injected with cRNA
T3 sequence (P36836 1-707 Y167Q): T1 sequence (P36836 1-707 Y56F) with F56Y, Y167Q
Protocol: as §1, §2

decrease in rate of uptake compared to the wild-type (Y56F-rPepT1): ~90% | uptake (wild-type rPepT1): 342 ± 37 fmol peptide/(oocyte h) | reduction of uptake compared to the wild-type (Y167Q-rPepT1): > 90%
Substance: [^3H]-D-Phe-L-Gln
